# Reference: patent US20180036314A1, “METHODS AND COMPOSITIONS FOR TREATING PERIPHERAL VASCULAR DISEASE” (Exodos Life Sciences Limited Partnership, priority 2009, published 2018)
# Tests used:
# [1] = tested on: patients with scleroderma and lupus; conditions: in vivo; cited from earlier work
# [2] = tested on: vasospastic attacks and peripheral blood flow; conditions: oral 20 mg 2 or 3 times per week during 4 weeks; compared to pentoxifylline 600 mg b.i.d.; cited from earlier work
# [3] = tested on: patient suffering from Raynaud's phenomenon secondary to chemotherapy; conditions: single patient; equipotent doses; cited from earlier work
# [4] = tested on: patients with Raynaud's phenomenon; conditions: cited from earlier work
# [5] = tested on: hands of normal human volunteers; test: Skin temperature recovery of the hand after cold water immersion (infrared camera); type: in vivo; conditions: topical, acclimation at 25° C.
# Method: The effects of L-arginine and sidelnafil citrate in the regulation of human blood flow was determined by measuring the rate of skin temperature recovery in the hands of normal human volunteers following a period of cold water immersion. The measurements were performed at room temperature 25° C., for a period of 30 minutes after acclimatization. L-arginine monohydrate and sildenafile citrate were prepared in commercially available Veecogel Cream base formulation containing Krisgel 100™, Coconut oil, Capryloic Acid, Triglicerides, Squalane, Boric Acid, Polysorbate 80, Sorbitan Monooleate 80, Simethicone, Butylated hydroxytoluene. Sildenafil citrate 1% was dissolved in propylene glycol 2% and combine with base with constant mixing. L-arginine monohydrate 10% and 1% were dissolve in 2% propylene glycol and combine with the Veecogel described above.
# Skin temperature was measured with an infrared camera FLIR T300 (FLIR Systems, Inc., Boston, Mass., USA). Changes in skin temperature were determined after cooling of hand for 2 minutes in ice water by analyzing individual thermal images with FLIR Quick Report software. The effects of test drugs were determined following application of substance to the cooled hand. Thermal images of a patient receiving the control treatment and of a patient receiving the combination treatment were taken at 0, 5, and 15 minutes after treatment, and are shown in FIGS. 1A and 1B, respectively.
# pig skin = test: Local cutaneous blood flow in pigs after topical application (laser Doppler); type: in vivo; conditions: for Local cutaneous blood flow, FLOW (MV), 10 min. after treatment / Local cutaneous blood flow, FLOW (MV), 20 min. after treatment / Local cutaneous blood flow, FLOW (MV), 30 min. after treatment / Local cutaneous blood flow, FLOW (MV), 60 min. after treatment / Local cutaneous blood flow, FLOW (MV), 120 min after treatment / Local cutaneous blood flow, FLOW (MV), 180 min. after treatment: topical
# Method: A stable depth of sedation was maintained with continuous intravenous methohexital, titrated to a minimal lid reflex and a regular respiratory rate. Throughout the experiment, the animals spontaneously breathed through a “snout-cone” connected to a standard anesthesia machine delivering 100% oxygen. The dorsal surface of the animal was cleaned with tepid water. Ten sites (2×2 cm each) were defined on the dorsal surface of the animal with permanent marker. […] MAP was recorded at the start and end of each Doppler scan. A dose volume of 0.1 mL of vehicle, control, or test article was applied to each site. L-arginine monohydrate and sildenafil citrate were prepared in commercially available Veecogel Cream base formulation (available from PCCA, 9901 South […], Houston, Tex., USA) containing […], Coconut oil, Capryloic Acid, […], Squalane, Boric Acid, Polysorbate 80, Sorbitan Monooleate 80, Simethicone, Butylated hydroxytoluene. Sildenafil citrate 1% was dissolved in propylene glycol 2% and combine with base with constant mixing. L-arginine monohydrate 10% and 1% were dissolved in 2% propylene glycol and combined with the Veecogel described above. No two adjacent sites were administered the same concentration of any control or test article and administration was temporally spaced to allow at least 2 minutes between dosing each site. […] Applications were made in the same order and over the same time span as the baseline blood flow measurements. […] Blood flow at the untreated, control site was measured immediately prior to and immediately after the measurements at the treated sites. These two measurements were averaged to obtain the control blood flow for each interval. Serum levels of local drugs were not measured. Regional differences in blood flow were accounted for by normalizing the measurements of flow made after injection of a test solution to the baseline flow at the site prior to application. Changes in blood flow are expressed as a percent change from control blood flow. Variations in skin blood flow over the course of the experiment were accounted for by normalizing the changes in blood flow at a given site to the changes in blood flow at a control site. Thus, the change in cutaneous blood flow at a treatment site can be determined by the formula: [formula] where Sx is the blood flow at an injected site X min after application, So is the baseline flow at that site prior to application, Cx is the flow at the control site X min after the application, and Co is the blood flow at the control site at the same time that the baseline flow measurements were made.
# [6] = tested on: patients with secondary Raynaud's phenomenon; conditions: oral 50 mg twice daily for 4 weeks, cited from earlier work
# [7] = tested on: primary Raynaud's symptoms; conditions: in vivo; cited from earlier work
# [8] = in vivo; cited from earlier work
# [9] = tested on: patients with Raynaud's phenomenon secondary to scleroderma; conditions: in vivo; cited from earlier work
compound,measurement,setting,value
"CN1CC(=O)N2[C@H](c3ccc4c(c3)OCO4)c3[nH]c4ccccc4c3C[C@@H]2C1=O [tadalafil, (6R,12aR)-2,3,6,7,12,12a-hexahydro-2-methyl-6-(3,4-methylenedioxyphenyl)-pyrazino[2′,1′:6,1]pyrido[3,4-b]indole-1,4-dione]",Raynaud's symptoms,[1],reduced Raynaud's symptoms
same,Peripheral blood flow at the end of the treatment period,[2],increased peripheral blood flow
same,Vasospastic attack frequency and duration,[2],significant reduction in vasospastic attack frequency and duration
same,Response of Raynaud's symptoms and capillary blood flow,[3],improved Raynaud's symptoms and increased capillary blood flow
Cc1c(C)c2c(c(C)c1O)CC[C@@](C)(CCC[C@H](C)CCC[C@H](C)CCCC(C)C)O2 [α-tocopherol],Effects on blood flow parameters,[4]; comparator arm,no effects on blood flow parameters
"N=C(N)NCCC[C@H](N)C(=O)O [Arginine, L-arginine]","Change in skin temperature from baseline, 1 min.",[5]; dose 10% W/v,2.5 °C
same,"Change in skin temperature from baseline, 2 min.",[5]; dose 10% W/v,4 °C
same,"Change in skin temperature from baseline, 5 min.",[5]; dose 10% W/v,5 °C
same,"Change in skin temperature from baseline, 10 min.",[5]; dose 10% W/v,9.5 °C
same,"Change in skin temperature from baseline, 15 min.",[5]; dose 10% W/v,11.5 °C
same,Effect on dermal blood flow,pig skin; topical application,increased dermal blood flow in a dose and time dependent manner
same,"Local cutaneous blood flow, FLOW (MV), 10 min. after treatment",pig skin; dose 1%,0.41 MV
same,"Local cutaneous blood flow, FLOW (MV), 20 min. after treatment",pig skin; dose 1%,12.47 MV
same,"Local cutaneous blood flow, FLOW (MV), 30 min. after treatment",pig skin; dose 1%,5.55 MV
same,"Local cutaneous blood flow, FLOW (MV), 60 min. after treatment",pig skin; dose 1%,2.71 MV
same,"Local cutaneous blood flow, FLOW (MV), 120 min after treatment",pig skin; dose 1%,7.91 MV
same,"Local cutaneous blood flow, FLOW (MV), 180 min. after treatment",pig skin; dose 1%,10.26 MV
same,"Local cutaneous blood flow, FLOW (MV), 10 min. after treatment",pig skin; dose 10%,19.82 MV
same,"Local cutaneous blood flow, FLOW (MV), 20 min. after treatment",pig skin; dose 10%,21.88 MV
same,"Local cutaneous blood flow, FLOW (MV), 30 min. after treatment",pig skin; dose 10%,22.07 MV
same,"Local cutaneous blood flow, FLOW (MV), 60 min. after treatment",pig skin; dose 10%,38.45 MV
same,"Local cutaneous blood flow, FLOW (MV), 120 min after treatment",pig skin; dose 10%,40.21 MV
same,"Local cutaneous blood flow, FLOW (MV), 180 min. after treatment",pig skin; dose 10%,38.72 MV
"CCCc1nn(C)c2c(=O)[nH]c(-c3cc(S(=O)(=O)N4CCN(C)CC4)ccc3OCC)nc12 [Sildenafil, 5-[2-ethoxy-5-(4-methyl-1-piperazinylsulphonyl)phenyl]-1-methyl-3-n-propyl-1,6-dihydro-7H-pyrazolo[4,3-d]pyrimidin-7-one]","Change in skin temperature from baseline, 1 min.",[5]; dose 1% W/v,1 °C
same,"Change in skin temperature from baseline, 2 min.",[5]; dose 1% W/v,4 °C
same,"Change in skin temperature from baseline, 5 min.",[5]; dose 1% W/v,6.5 °C
same,"Change in skin temperature from baseline, 10 min.",[5]; dose 1% W/v,8.5 °C
same,"Change in skin temperature from baseline, 15 min.",[5]; dose 1% W/v,12.5 °C
same,Digital ulcers in patients who had digital ulcers at baseline,[6],ulcer healing was observed
same,Increase in mean capillary flow velocity,[6],more than 4 fold
same,Frequency and duration of Raynaud's attacks,[6]; compared to placebo,reduction in the frequency and duration of Raynaud's attacks compared to placebo
same,Primary Raynaud's symptoms,[7],failed to improve primary Raynaud's symptoms
same,Effect on blood flow,pig skin; topical concentration of 1% in Veecogel cream base,increased blood flow in the areas of application
same,"Local cutaneous blood flow, FLOW (MV), 10 min. after treatment",pig skin; dose 1%,−10.31 MV
same,"Local cutaneous blood flow, FLOW (MV), 20 min. after treatment",pig skin; dose 1%,−3.51 MV
same,"Local cutaneous blood flow, FLOW (MV), 30 min. after treatment",pig skin; dose 1%,−1.57 MV
same,"Local cutaneous blood flow, FLOW (MV), 60 min. after treatment",pig skin; dose 1%,1.58 MV
same,"Local cutaneous blood flow, FLOW (MV), 120 min after treatment",pig skin; dose 1%,3.15 MV
same,"Local cutaneous blood flow, FLOW (MV), 180 min. after treatment",pig skin; dose 1%,15.73 MV
same,Response of Raynaud's symptoms and capillary blood flow,[3],did not respond
same,Half-life,[8],3.8 h
same,Patients with a reduction in pain and frequency of Raynaud's phenomenon attacks,[9],80%
same,Patients with digital ulcer healing (of those with digital ulcers at baseline),[9],75%
same,Increase in forearm blood flow,"[4]; oral, after treatment",75%
